Results: patent US20200115667A1, “VASCULARIZED MICROFLUIDIC PLATFORMS” (BOARD OF REGENTS, THE UNIVERSITY OF TEXAS SYSTEM, priority 2017, published 2020)
Read-outs that look alike come from different tables or passages of the source.

Experiments:
[1] = test system: TIME monoculture endothelium; assay: Porosity of vasculature (vessel confluence, confocal); format: cell-based, human; settings: 20 ng/ml perfused 24 hours
Experimental: After embedding cells in collagen and successfully preconditioning endothelialized channels for 72 hours to establish a confluent, aligned endothelium, the effect of different co-culture conditions on the vessel confluence was studied as shown in FIG. 20.
To create a fully functional aligned endothelium along each channel within each compartment, TIME cell suspension in media (10×10^6 cells/ml) was introduced in the channel and underwent flow preconditioning for 3 days. Within the first 36 hours, wall shear stress was maintained at 0.01 dyn/cm^2 and followed with a linear increase of wall shear stress to 0.1 dyn/cm^2 for 1 hour and maintained at this value for the next 36 hours. […] For positive control samples, 20 ng/ml Tumor Necrosis Factor Alpha (TNFα, RnD Systems, MN) was perfused at 0.1 dyn/cm^2 for 24 hours after the preconditioning protocol before transport studies. To provide flow into the microfluidic platform, 0.5″ long 22G stainless steel needles were inserted though PDMS ports and partially into the collagen microchannels. Autoclaved Tygon silicon tubing ( 1/16″ ID, Saint Global, France) was connected to the inlet needle and a bubble trap, which is connected to a syringe pump that controls the flow rate. […]
Therefore, endothelial porosity was determined using fluorescence microscopy images of mKate tagged endothelial cells.

[2] = test system: endothelial lumen of C3Asub28/TIME, MDA-MB-231/TIME, THLE-3/TIME microenvironments; assay: Vessel permeability of multi tissue-on-a-chip microenvironments; format: cell-based, human; settings: TNFα treated TIME monoculture vs TIME monoculture, this study
Experimental: Transport measurements of varying particle sizes in the multi tissue-on-a-chip microenvironment were conducted for two different scenarios: single microenvironment analysis and microenvironments connected in series to investigate the influence of their interactions and interdependent transport kinetics. When considering only a single microenvironment transport, particles were delivered through the vessel of the microenvironment of interest and transport through the vessel and into the surrounding ECM was measured subsequently and spatially. In these tests, 5 different platform configurations was used: acellular with no cells in the ECM and no cells in the vessel, TIME monoculture consisting only endothelial cells lining the vessel without cells in the ECM, and then vascularized microenvironments denoted as cells in the ECM/cells in the vessel: MDA-MB-231/TIME, C3Asub28/TIME, and THLE-3/TIME microenvironments. […]
Therefore, endothelial porosity was determined using fluorescence microscopy images of mKate tagged endothelial cells. […] The effect of vessel and ECM porosities and particle size on transport were quantified using two methods, permeability coefficient and intensity profiles of the particles in the vessel and ECM. […] Obtained images were exported to Matlab to quantify intensity readings at each time step. For the first method, permeability coefficient was calculated using Equation 8

[3] = test system: endothelial lumen of C3Asub28/TIME, MDA-MB-231/TIME, THLE-3/TIME microenvironments; settings: reported by Zervantonakis et al.; cited from earlier work

In the case of Tumor Necrosis Factor Alpha [TNFα], the “effect on vessel compared to Control −” value [1] is given as “caused vessel permeabilization with significant pore openings”, the “fold change of permeability between Control − and Control +” value [2] is given as 1.59±0.13 and the “fold change of permeability between Control − and Control +” value [3] is given as 1.79±0.27.
